Legend:
Assay in all cases: Greenhouse herbicidal activity, post-emergence treatment
Conditions in all cases: 0.5 or 0.25 kg/ha of a.s.
Chenopodium album = format: in vivo, Chenopodium album (lambsquarters, goosefoot)
Text: (§1) The culture containers used were plastic pots containing loamy sand with approximately 3.0% of humus as the substrate. The seeds of the test plants were sown separately for each species.
(§2) For the post-emergence treatment, the test plants were first grown to a height of 3 to 15 cm, depending on the plant habit, and only then treated with the active compounds which had been emulsified or suspended in water. The test plants were for this purpose either sown directly and grown in the same containers, or they were first grown separately as seedlings and transplanted into the test containers a few days prior to treatment. The application rate for the post-emergence treatment was 0.5 or 0.25 kg/ha of a.s.
(§3) Depending on the species, the plants were kept at 10-25° C. or 20-35° C. . The test period extended over 2 to 4 weeks. During this time, the plants were tended, and their response to the individual treatments was evaluated.
(§4) The evaluation was carried out using a scale from 0 to 100. 100 means no emergence of the plants, or complete destruction of at least the aerial parts, and 0 means no damage, or normal course of growth.
(§5) The plants used in the greenhouse trials were from the following species:
(§6) Herbicidal activity when employed by the post-emergence method (greenhouse) [drawing 20]

Setaria viridis = format: in vivo, Setaria viridis (green foxtail)
Text: as §1, §2, §3, §4, §5, §6

Sinapis alba = format: in vivo, Sinapis alba (white mustard)
Text: as §1, §2, §3, §4, §5, §6

Solanum nigrum = format: in vivo, Solanum nigrum (black nightshade)
Text: as §1, §2, §3, §4, §5, §6

Measured: control of the weed (herbicidal activity)

CC1(C)C(=O)C(C(=O)c2ccc(Cl)c(CC3=NOCC3)c2Cl)=C(O)C(C)(C)C1=O [Compound 37.2, 2,4-Dichloro-3-((4,5-dihydro-3-isoxazolylmethyl)phenyl)(3,3,6,6-tetramethylcyclohexane-1,3,5-trione)methanone]
very efficient control: all assays above

Source: patent publication US6559100B1, “2-benzoyl-cyclohexane-1,3-diones” (BASF Aktiengesellschaft, priority 1997, dated 2003)
